Here are results for 34 molecules from US20200031778A1, “NOVEL 5-SUBSTITUTED IMIDAZOLYLMETHYL DERIVATIVES” (Bayer CropScience Aktiengesellschaft, priority 2016, published 2020).

This data set is described as follows: Log P by HPLC on reversed phase columns (EEC directive 79/831 Annex V.A8; methods [a], [b], [c]). The format is physicochemical. In a few lines: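 Log P derived from retention times, interpolated linearly between bracketing straight-chain alkan-2-ones (3–16 carbons) of known Log P. Eluents ran acetonitrile 10% to 95% against water with 0.1% formic acid ([a], acidic), 0.001 M ammonium acetate ([b], neutral) or 0.1% phosphoric acid ([c], acidic); UV read-out.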

Structures are written as SMILES.

`N#Cc1cncn1CC(O)(CC1CC1)c1cc(F)cc(F)c1` (stereo not shown) [I-502]: the LogP is 2.29^[a].

Take `C/C=C(\C)C(O)(Cn1cncc1C#N)c1ccc(F)cc1F` (stereo not shown) [I-396]: the LogP is 2.41^[a].

As to `COC(C)(Cn1cncc1Br)c1ccc(Oc2ccc(Br)cc2)cc1C(F)(F)F` (stereo not shown) [I-200], the LogP is 3.89^[a].

Take `N#Cc1cncn1CC(O)(CC1CC1)c1cc(Cl)c(Cl)c(Cl)c1` (stereo not shown) [I-529]: the LogP is 3.22^[a].

Take `CC(C)(C)CC(C)(O)Cn1cncc1C#N` (stereo not shown) [I-239]: the LogP is 1.92^[a].

Consider `CC(C)(C)C(O)(Cn1cncc1C#N)c1ccc(F)c(F)c1` (stereo not shown) [I-483], for which the LogP is 2.66^[a].

As for `CC(C)C(O)(Cn1cncc1C#N)c1ccc(F)cc1Cl` (stereo not shown) [I-425], the LogP is 2.60^[a].

Turning to `CC(O)(Cn1cncc1Cl)c1ccc(Oc2ccc(C(F)(F)F)cc2)cc1Cl` (stereo not shown) [I-159], the LogP was 3.02^[a].

Take `C=CC(C)C(O)(Cn1cncc1C#N)C1(F)CC1` (stereo not shown) [I-375]: the LogP was 1.94^[a].

In the case of `COC(Cn1cncc1Br)c1ccc(Oc2ccc(Br)cc2)cc1Br` (stereo not shown) [I-51], the LogP is 3.72^[a].

For the molecule `N#Cc1cncn1CC(O)(c1cc(Cl)cc(Cl)c1Cl)C1(Cl)CC1` (stereo not shown) [I-614], the LogP is 2.80^[a].

As to `N#Cc1cncn1CC(O)c1ccc(Oc2ccc(S(F)(F)(F)(F)F)cc2)nc1C(F)(F)F` (stereo not shown) [I-146], the LogP was 3.35^[a].

In the case of `CC(C)(C)C#Cc1ccc(C(O)(Cn2cncc2C#N)C2(Cl)CC2)c(F)c1` (stereo not shown) [I-653], the LogP is 3.79^[a].

Regarding `C[Si](C)(C)C=CC(O)(Cn1cncc1C#N)C1(F)CC1` (stereo not shown) [I-679], the LogP is 2.77^[a].

Take `CC(O)(Cn1cncc1Cl)c1ccc(Oc2ccc(Cl)cc2)cc1` (stereo not shown) [I-164]: the LogP was 2.32^[a].

As for `CCCOC(Cn1cncc1C#N)c1ccc(Oc2ccc(Cl)cc2)cc1C(F)(F)F` (stereo not shown) [I-85], the LogP is 4.92^[a].

With `N#Cc1ccc(Oc2ccc(C(O)Cn3cncc3Cl)c(Cl)c2)cc1` (stereo not shown) [I-06], the LogP is 2.03^[a].

Consider `N#Cc1cncn1CC(O)(CC1CC1)c1cc(F)c(F)c(Br)c1` (stereo not shown) [I-494], for which the LogP was 2.74^[a].

On to `N#Cc1cncn1CC(O)(c1ccc(Br)cc1F)C1(F)CC1` (stereo not shown) [I-403], for which the LogP is 2.43^[a].

`CCCCC(O)(Cn1cncc1C#N)c1ccc(Cl)cc1Cl` (stereo not shown) [I-261]: the LogP was 3.41^[a].

For the molecule `N#Cc1cncn1CC(O)(c1cc(Cl)c(F)cc1F)C1(F)CC1` (stereo not shown) [I-577], the LogP is 2.42^[a].

Turning to `N#Cc1cncn1CC(O)c1cnc(Oc2ccc(Br)nc2)cc1C(F)(F)F` (stereo not shown) [I-153], the LogP was 2.41^[a].

As to `CC(O)(Cn1cncc1Cl)c1ccc(Oc2ccc(Cl)cc2)nc1C(F)(F)F` (stereo not shown) [I-180], the LogP is 2.63^[a].

For the molecule `CC(O)(Cn1cncc1Cl)c1ccc(Oc2ccc(I)cc2)cc1Br` (stereo not shown) [I-187], the LogP is 3.25^[a].

As to `N#Cc1cncn1CC(O)(c1cc(F)cc(F)c1F)C1(Cl)CC1` (stereo not shown) [I-620], the LogP is 2.29^[a].

On to `CC(O)(Cn1cncc1Br)c1ccc(Oc2ccc(Cl)cc2)cc1C(F)(F)F` (stereo not shown) [I-193], for which the LogP is 2.76^[a].

On to `Cc1c(Cl)ccc(C(O)(Cn2cncc2C#N)C2(F)CC2)c1F` (stereo not shown) [I-685], for which the LogP was 2.63^[a].

With `N#Cc1cncn1CC(O)(c1cc(F)c(F)cc1Br)C1(F)CC1` (stereo not shown) [I-688], the LogP is 2.36^[a].

Take `CC(C)CC#CC(O)(CC1CC1)Cn1cncc1C#N` (stereo not shown) [I-451]: the LogP was 2.52^[a].

Turning to `N#Cc1cncn1CC(O)(c1ccc(F)c(Cl)c1F)C1(Cl)CC1` (stereo not shown) [I-627], the LogP was 2.52^[a].

Turning to `N#Cc1cncn1CC(O)(c1ccc(F)cc1F)C1CCCCC1` (stereo not shown) [I-481], the LogP was 3.05^[a].

`CC(O)(Cn1cncc1F)c1cnc(Oc2ccc(C(F)(F)F)cc2)cc1Br` (stereo not shown) [I-243]: the LogP was 2.36^[a].

As to `N#Cc1cncn1CC(O)(c1cc(F)c(Cl)cc1F)C1(F)CC1` (stereo not shown) [I-580], the LogP was 2.45^[a].

In the case of `N#Cc1cncn1CC(O)c1ccc(Oc2ccc(Cl)cc2F)nc1C(F)(F)F` (stereo not shown) [I-136], the LogP was 2.94^[a].
